Test results published in patent US5304367A, “In vivo brain imaging agent and method for diagnosis of psychiatric disorders” (New York University, priority 1990, dated 1994).

Experiments:
βAR = test: quantitative autoradiography, age dependence of βAR distribution in the human brain; type: binding
[1] = whole body distribution, mice, 2 μCi; type: in vivo, mouse
Description: In a subsequent study, whole body distribution was examined in mice following tail vein injection of 2 μCi ^125 I-iodopindolol. Animals were sacrificed at various time points up to 22 hours post-injection. Percent injected dose (%ID) was determined in 11 organs, blood and urine. At one minute, lungs contained the highest %ID (17%), heart 3-4 %ID and brain 0.3%ID.

CC(C)NCC(O)COc1cccc2[nH]cc([125I])c12 (stereo not drawn) [^125 I-iodopindolol]
specifically bound (βAR; caudate nucleus, head, male, N=5): 1.45 ± 0.34 fmol [^125 I]iodopindolol/mg tissue
specifically bound (βAR; caudate nucleus, tail, female, N=8): 1.15 ± 0.17 fmol [^125 I]iodopindolol/mg tissue
specifically bound (βAR; caudate nucleus, tail, male, N=14): 1.39 ± 0.23 fmol [^125 I]iodopindolol/mg tissue
specifically bound (βAR; claustrum, female, N=5): 0.64 ± 0.18 fmol [^125 I]iodopindolol/mg tissue
specifically bound (βAR; claustrum, male, N=9): 0.86 ± 0.14 fmol [^125 I]iodopindolol/mg tissue
specifically bound (βAR; entorhinal cortex, female, N=3): 0.94 ± 0.33 fmol [^125 I]iodopindolol/mg tissue
specifically bound (βAR; entorhinal cortex, male, N=10): 1.00 ± 0.19 fmol [^125 I]iodopindolol/mg tissue
specifically bound (βAR; globus pallidus, lateral, female, N=5): 0.78 ± 0.16 fmol [^125 I]iodopindolol/mg tissue
specifically bound (βAR; globus pallidus, lateral, male, N=8): 0.85 ± 0.20 fmol [^125 I]iodopindolol/mg tissue
specifically bound (βAR; globus pallidus, medial, female, N=3): 0.44 ± 0.09 fmol [^125 I]iodopindolol/mg tissue
specifically bound (βAR; globus pallidus, medial, male, N=8): 0.73 ± 0.17 fmol [^125 I]iodopindolol/mg tissue
specifically bound (βAR; hippocampus, CA fields, molecular layer, female, N=4): 1.70 ± 0.40 fmol [^125 I]iodopindolol/mg tissue
specifically bound (βAR; hippocampus, CA fields, molecular layer, male, N=13): 1.74 ± 0.26 fmol [^125 I]iodopindolol/mg tissue
specifically bound (βAR; hippocampus, CA fields, pyramidal layer, female, N=4): 1.70 ± 0.26 fmol [^125 I]iodopindolol/mg tissue
specifically bound (βAR; hippocampus, CA fields, pyramidal layer, male, N=13): 1.74 ± 0.26 fmol [^125 I]iodopindolol/mg tissue
specifically bound (βAR; inferior temporal gyrus, external band, female, N=5): 1.21 ± 0.14 fmol [^125 I]iodopindolol/mg tissue
specifically bound (βAR; inferior temporal gyrus, external band, male, N=13): 1.04 ± 0.16 fmol [^125 I]iodopindolol/mg tissue
specifically bound (βAR; inferior temporal gyrus, internal band, female, N=6): 1.11 ± 0.17 fmol [^125 I]iodopindolol/mg tissue
specifically bound (βAR; inferior temporal gyrus, internal band, male, N=13): 1.14 ± 0.17 fmol [^125 I]iodopindolol/mg tissue
specifically bound (βAR; lateral occipitotemporal gyrus, external band, female, N=6): 0.93 ± 0.19 fmol [^125 I]iodopindolol/mg tissue
specifically bound (βAR; lateral occipitotemporal gyrus, external band, male, N=13): 0.94 ± 0.13 fmol [^125 I]iodopindolol/mg tissue
specifically bound (βAR; lateral occipitotemporal gyrus, internal band, female, N=6): 0.86 ± 0.11 fmol [^125 I]iodopindolol/mg tissue
specifically bound (βAR; lateral occipitotemporal gyrus, internal band, male, N=13): 1.02 ± 0.14 fmol [^125 I]iodopindolol/mg tissue
specifically bound (βAR; medial temporal gyrus, external band, female, N=6): 1.03 ± 0.15 fmol [^125 I]iodopindolol/mg tissue
specifically bound (βAR; medial temporal gyrus, external band, male, N=13): 1.05 ± 0.18 fmol [^125 I]iodopindolol/mg tissue
specifically bound (βAR; medial temporal gyrus, internal band, female, N=6): 1.06 ± 0.15 fmol [^125 I]iodopindolol/mg tissue
specifically bound (βAR; medial temporal gyrus, internal band, male, N=13): 1.18 ± 0.17 fmol [^125 I]iodopindolol/mg tissue
specifically bound (βAR; parahippocampal gyrus, external band, female, N=7): 1.22 ± 0.32 fmol [^125 I]iodopindolol/mg tissue
specifically bound (βAR; parahippocampal gyrus, external band, male, N=13): 1.07 ± 0.19 fmol [^125 I]iodopindolol/mg tissue
specifically bound (βAR; parahippocampal gyrus, internal band, female, N=6): 1.01 ± 0.23 fmol [^125 I]iodopindolol/mg tissue
specifically bound (βAR; parahippocampal gyrus, internal band, male, N=13): 0.95 ± 0.15 fmol [^125 I]iodopindolol/mg tissue
specifically bound (βAR; putamen, female, N=6): 1.05 ± 0.22 fmol [^125 I]iodopindolol/mg tissue
specifically bound (βAR; putamen, male, N=11): 1.24 ± 0.18 fmol [^125 I]iodopindolol/mg tissue
specifically bound (βAR; subiculum, female, N=5): 1.35 ± 0.33 fmol [^125 I]iodopindolol/mg tissue
specifically bound (βAR; subiculum, male, N=12): 1.36 ± 0.20 fmol [^125 I]iodopindolol/mg tissue
specifically bound (βAR; superior temporal gyrus, external band, female, N=6): 1.18 ± 0.18 fmol [^125 I]iodopindolol/mg tissue
specifically bound (βAR; superior temporal gyrus, external band, male, N=14): 1.13 ± 0.16 fmol [^125 I]iodopindolol/mg tissue
specifically bound (βAR; superior temporal gyrus, internal band, female, N=6): 1.04 ± 0.13 fmol [^125 I]iodopindolol/mg tissue
specifically bound (βAR; superior temporal gyrus, internal band, male, N=14): 1.18 ± 0.15 fmol [^125 I]iodopindolol/mg tissue
specifically bound (βAR; white matter, female, N=8): 0.47 ± 0.09 fmol [^125 I]iodopindolol/mg tissue
specifically bound (βAR; white matter, male, N=18): 0.59 ± 0.07 fmol [^125 I]iodopindolol/mg tissue
radioactivity in all organs ([1]; between 2-4 hours post-injection): fell in all organs
brain, percent injected dose (%ID) ([1]; one minute, 2 μCi tail vein): 0.3 %ID
heart, percent injected dose (%ID) ([1]; one minute, 2 μCi tail vein): 3-4 %ID
lungs, percent injected dose (%ID) ([1]; one minute, 2 μCi tail vein): 17 %ID
brain levels, time course ([1]; until two hours post-injection): remained stable until two hours post-injection
lung radioactivity ([1]; until two hours post-injection): declined
stomach and intestine radioactivity ([1]; until two hours post-injection): increased
